Experimental data from ChEMBL document CHEMBL5385841, “Recent advances in gout drugs” (Eur J Med Chem, 2023).

Assays:
[1] = target: Xanthine dehydrogenase/oxidase (Homo sapiens, UniProt P47989); assay: Inhibition of XO (unknown origin)
[2] = Oral bioavailability in rat relative to urinary excretion; type: ADME, organism-based; conditions: urine
[3] = target: T1, Broad substrate specificity ATP-binding cassette transporter ABCG2 (Homo sapiens, UniProt Q9UNQ0); assay: Inhibition of ABCG2 (unknown origin)
T1 sequence (Q9UNQ0 whole entry): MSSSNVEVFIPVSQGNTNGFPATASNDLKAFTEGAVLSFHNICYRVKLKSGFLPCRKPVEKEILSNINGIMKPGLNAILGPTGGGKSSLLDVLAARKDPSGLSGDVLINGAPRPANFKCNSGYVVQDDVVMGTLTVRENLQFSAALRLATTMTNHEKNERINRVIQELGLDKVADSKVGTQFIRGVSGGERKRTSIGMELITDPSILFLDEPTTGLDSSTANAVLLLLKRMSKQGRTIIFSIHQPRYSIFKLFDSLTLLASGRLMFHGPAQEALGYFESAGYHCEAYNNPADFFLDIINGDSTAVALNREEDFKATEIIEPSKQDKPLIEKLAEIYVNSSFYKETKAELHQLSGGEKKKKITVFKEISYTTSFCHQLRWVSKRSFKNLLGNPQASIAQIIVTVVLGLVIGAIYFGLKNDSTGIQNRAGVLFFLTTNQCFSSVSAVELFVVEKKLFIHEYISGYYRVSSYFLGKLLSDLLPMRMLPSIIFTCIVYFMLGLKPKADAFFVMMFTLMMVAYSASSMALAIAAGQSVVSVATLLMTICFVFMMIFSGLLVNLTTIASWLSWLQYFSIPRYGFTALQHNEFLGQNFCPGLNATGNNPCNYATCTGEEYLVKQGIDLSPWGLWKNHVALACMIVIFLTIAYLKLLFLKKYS

Xanthine dehydrogenase/oxidase, sequence (P47989 whole entry): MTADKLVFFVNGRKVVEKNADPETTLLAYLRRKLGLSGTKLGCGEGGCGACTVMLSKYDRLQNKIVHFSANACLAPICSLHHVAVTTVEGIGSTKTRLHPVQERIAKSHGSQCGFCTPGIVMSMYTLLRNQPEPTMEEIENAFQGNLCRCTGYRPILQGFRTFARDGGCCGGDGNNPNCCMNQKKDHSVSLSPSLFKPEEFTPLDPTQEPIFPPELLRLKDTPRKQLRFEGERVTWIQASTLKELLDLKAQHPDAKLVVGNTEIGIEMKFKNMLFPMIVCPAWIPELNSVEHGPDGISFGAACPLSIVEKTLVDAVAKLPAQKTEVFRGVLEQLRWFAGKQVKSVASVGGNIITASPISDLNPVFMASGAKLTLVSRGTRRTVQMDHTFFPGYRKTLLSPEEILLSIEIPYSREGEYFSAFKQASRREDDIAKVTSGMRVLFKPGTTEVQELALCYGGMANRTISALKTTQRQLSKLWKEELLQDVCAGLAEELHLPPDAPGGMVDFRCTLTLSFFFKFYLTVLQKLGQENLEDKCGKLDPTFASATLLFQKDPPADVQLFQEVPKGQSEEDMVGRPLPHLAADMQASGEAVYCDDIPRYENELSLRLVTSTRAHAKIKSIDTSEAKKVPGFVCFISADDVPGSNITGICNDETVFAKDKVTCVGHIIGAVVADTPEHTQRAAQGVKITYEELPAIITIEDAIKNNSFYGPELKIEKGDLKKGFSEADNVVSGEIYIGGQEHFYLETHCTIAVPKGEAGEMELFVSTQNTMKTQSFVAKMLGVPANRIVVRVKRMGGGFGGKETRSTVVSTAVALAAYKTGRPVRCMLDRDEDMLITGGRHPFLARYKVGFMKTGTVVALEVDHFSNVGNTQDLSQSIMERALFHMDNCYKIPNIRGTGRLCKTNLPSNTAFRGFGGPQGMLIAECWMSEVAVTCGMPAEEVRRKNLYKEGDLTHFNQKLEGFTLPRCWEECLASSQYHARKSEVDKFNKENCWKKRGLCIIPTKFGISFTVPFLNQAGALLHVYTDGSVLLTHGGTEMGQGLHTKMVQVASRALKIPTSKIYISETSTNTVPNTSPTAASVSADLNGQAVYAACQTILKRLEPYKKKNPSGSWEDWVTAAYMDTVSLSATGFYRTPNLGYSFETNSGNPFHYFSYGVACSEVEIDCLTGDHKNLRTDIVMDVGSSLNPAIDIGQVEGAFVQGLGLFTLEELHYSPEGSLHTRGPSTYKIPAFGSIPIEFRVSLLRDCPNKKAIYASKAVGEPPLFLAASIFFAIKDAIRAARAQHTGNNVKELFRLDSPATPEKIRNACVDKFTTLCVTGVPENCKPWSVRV

| IC50 [1] [µM] | Structure (SMILES) | further results |
| --- | --- | --- |
| 5.3 | CC(=O)N1N=C(c2ccco2)CC1c1ccncc1 (centres undefined) | – |
| 21.7 | N#Cc1ccc(COc2cc(O)cc3oc4cc(O)c(O)cc4c(=O)c23)cc1 | – |
| 0.62 | O=c1cc(-c2ccc(F)cc2)oc2c1ccc1ccccc12 | – |
| 25 | Cc1nc(-c2ccc(OCC(C)C)c(C#N)c2)sc1C(=O)O [FEBUXOSTAT] | – |

The next lines start with the molecule.

| Structure (SMILES) | IC50 [1] [µM] | further results |
| --- | --- | --- |
| O=C(O)[C@H]1O[C@@H](Oc2c(Cl)cc(C(=O)N3CS(=O)(=O)c4ccccc43)cc2Cl)[C@H](O)[C@@H](O)[C@@H]1O | – | bioavailability [2]: 44.3% |
| N#CC1=C(N)Oc2c(c(=O)oc3ccccc23)C1c1cccs1 (centres undefined) | 0.59 | – |
| O=C(c1cc(Cl)c(OS(=O)(=O)O)c(Cl)c1)N1CS(=O)(=O)c2ccccc21 | – | bioavailability [2]: 20% |
| Cc1nc(-c2ccc(OCC(C)(C)C)c(C#N)c2)n(O)c1C(=O)O | 6 | – |
| O=C(c1cc(Cl)c(O)c(Cl)c1)N1CS(=O)(=O)c2ccccc21 [DOTINURAD] | – | IC50 [3]: 37.2 nM |
